# Reference: PMC3797749, “Functional Characterisation of the Maturation of the Blood-Brain Barrier in Larval Zebrafish” (PLoS ONE, 2013)
# Key:
# [1] = tested on: zebrafish larvae; assay: in vivo; settings: for Absorption (whole body) (% uptake): 15 µg/ml (5 µg/ml scopolamine) immersion 1 hour, tissue vs medium concentration; for drug level (LC/MS/MS): 5 µg/ml 1 hour
# Experimental: (§1) Initial drug exposure assays were performed in larval zebrafish to identify a sufficiently high concentration of drug that could be detected by liquid chromatography/tandem mass spectrometry (LC/MS/MS) analysis without causing toxicity. Maximum tolerated concentration (MTC) was determined using n=6 larvae per group. […] Compounds of interest were prepared as 2 mg/ml stocks in dimethyl sulfoxide (DMSO). […] Larvae were incubated in the drug for 1 hour at room temperature then anaesthetised on ice. For whole uptake analysis, anaesthetised larvae were transferred to 1.5 ml microfuge tubes and all excess liquid was removed. 100 µl ice cold PBS was added, samples were briefly centrifuged and all excess liquid was removed. For brain versus body uptake analysis, larvae were anaesthetised by chilling prior to decapitation using fine iridectomy scissors and No. 5 watchmaker forceps. Head and body tissue samples were collected in separate microfuge tubes on ice and excess liquid removed. 100 µl ice cold PBS was added and samples were briefly centrifuged and all excess liquid removed. The weight of the tissue sample was measured and the samples were frozen at -20 °C prior to extraction for LC/MS/MS.
# (§2) Test compound was added to the well containing 50 µg/ml verapamil and larvae were incubated for a further hour at room temperature prior to tissue collection as described. For subsequent LC/MS/MS analysis, tissue samples were thawed and after addition of an internal standard (clozapine) extracted into an organic solvent (tertiary-butyl methyl ether, t-bme). […] The analytes and internal standard were ionised under atmospheric pressure chemical ionisation (APCI) conditions operating in positive ion mode. Detection was via tandem mass spectrometry (MS/MS) using selected ion monitoring (SIM). All analyses were performed using a Finnigan LCQ quadrupole ion trap mass spectrometer.
# (§3) A panel of 5 drugs known to either cross or not cross the BBB in mammals were selected to test in zebrafish larvae. Larvae of different ages were exposed to these compounds at non-toxic concentrations for 1 hour prior to collection of head and trunk tissue for analysis of drug concentration. A generic extraction method was developed and LC/MS/MS was performed to analyse the concentration of drug in head and trunk tissue in larvae of different ages. Drug/tissue concentrations were normalised against a standard and the relative amount of drug in head and trunk samples was compared to determine whether the drug distribution altered with larval age (Table 2).
# [2] = in vivo; settings: zebrafish, in vivo, immersion 1 hour
# Experimental: as §1, §2, §3
# [3] = tested on: zebrafish larvae; assay: Dye exclusion experiments (pericardial injection, brain fluorescence quantification); assay type: in vivo
# Experimental: Stocks of 2% Evans blue (961 Da) and 10% sodium fluorescein (376 Da) in 0.9% saline were prepared and stored at 4 °C. Larvae were anaesthetised by immersion in 0.2 mg/ml 3-amino benzoic acid (MS222) prior to being immobilised and positioned laterally in 3% methyl cellulose in embryo medium such that the heart was accessible. Larvae and juveniles from 2 days post-fertilisation (d.p.f.) to 30 d.p.f. were injected with 0.5 to 2 nl (depending on age) of dye or saline control into the pericardial region, using a standard zebrafish microinjection apparatus. Fish were transferred to fresh embryo medium to recover from anaesthesia, then viewed using a fluorescence dissecting microscope at 1 hour intervals to determine the time of uptake of the dye into the circulation and the time at which dye had permeated from the circulation into non-vascular body tissue. Representative images of dye distribution in vivo were taken on a Zeiss AxioZoom V16 microscope with Apotome. Dye and saline injected larvae were anaesthetised at 4 or 6 hours after injection and fixed in 4% paraformaldehyde in PBS. Ten larvae per age group and injection treatment were embedded in Sakura Tissue-Tek OCT (Bayer, Newbury, UK) and frozen parasagittal sections were cut at 10 µm thickness.
# Sections were visualised without mounting medium by fluorescence microscopy on an Olympus BX51 microscope. Three midline sagittal sections from each larva were identified and images were captured using a ColorView camera (Olympus) and AnalySis software (Soft Imaging System). The fluorescence intensity within the brain was quantified for each midline section of each larva in each treatment group using colour threshold and area measurements in AnalySis. Mean values, standard deviations and Student’s t-tests were calculated using Excel software (Microsoft Office).
# Rhodamine 123 (R123) was dissolved in 10% ethanol/0.9% saline to make a 0.5 mg/ml stock. […] Quantification of fluorescence in the brain was performed as described above.
# [4] = known from mammals, no reference given; cited from earlier work
# [5] = tested on: Abcb1/4/5; assay: Rhodamine 123 dye exclusion in the presence of verapamil; assay type: in vivo, zebrafish; settings: 8 d.p.f. and 10 d.p.f.; verapamil 50 µg/ml; 3 hours after injection
# Experimental: Dye exclusion experiments on larvae at 3, 5, 8 and 10 d.p.f. were performed as described above using 0.2 nl R123. Some larvae were exposed to verapamil at 50 µg/ml for 2 hours prior to and during intrapericardial injection of R123 and for 3 hours after injection. At 3 hours after injection, larvae were anaesthetised and fixed in 4% PFA prior to processing for frozen sections. Quantification of fluorescence in the brain was performed as described above.
# [6] = ref ChemIDplus; cited from earlier work
# [7] = 15 µg/ml, Head concentration, 5 d.p.f.
# [8] = 15 µg/ml, Head concentration, 8 d.p.f.
# [9] = 15 µg/ml, Trunk concentration, 5 d.p.f.
# [10] = 15 µg/ml, Trunk concentration, 8 d.p.f.
# [11] = pericardial injection, brain fluorescence on frozen sections vs saline
molecule,measurement,setting,value
Clc1ccc2c(c1)CCc1cccnc1C2=C1CCNCC1 [Desloratadine],Absorption (whole body) (% uptake),[1]; 5 d.p.f.,14.8%
same,Absorption (whole body) (% uptake),[1]; 10 d.p.f.,28.5%
CN(C)CCOC(c1ccccc1)c1ccccc1 [Diphenhydramine],concentration at 1 h,[2]; [7],21600 ng/g
same,concentration at 1 h,[2]; [8],31200 ng/g
same,concentration at 1 h,[2]; [9],21100 ng/g
same,concentration at 1 h,[2]; [10],24000 ng/g
same,concentration at 1 h,"[2]; Head concentration, 10 d.p.f.",52800 ng/g
same,concentration at 1 h,"[2]; Trunk concentration, 10 d.p.f.",54800 ng/g
Cc1cc(-c2ccc(/N=N/c3ccc4c(S(=O)(=O)O)cc(S(=O)(=O)O)c(N)c4c3O)c(C)c2)ccc1/N=N/c1ccc2c(S(=O)(=O)O)cc(S(=O)(=O)O)c(N)c2c1O [Evans blue],larval age at which the injected dye is excluded from the brain,"[3]; zebrafish, in vivo, 3 h",5 d.p.f.
O=C(CCCN1CCC(O)(c2ccc(Cl)cc2)CC1)c1ccc(F)cc1 [Haloperidol],concentration at 1 h,[2]; [7],116000 ng/g
same,concentration at 1 h,[2]; [8],136000 ng/g
same,concentration at 1 h,[2]; [9],104000 ng/g
same,concentration at 1 h,[2]; [10],149000 ng/g
same,concentration at 1 h,"[2]; Head concentration, 10 d.p.f.",113000 ng/g
same,concentration at 1 h,"[2]; Trunk concentration, 10 d.p.f.",101000 ng/g
same,"amount of drug absorbed, larval tissue as % of the medium concentration","[1]; 1 hour exposure, lowest and highest value over drugs and ages",949%
same,Absorption (whole body) (% uptake),[1]; 5 d.p.f.,732.6%
same,Absorption (whole body) (% uptake),[1]; 8 d.p.f.,949.5%
same,Absorption (whole body) (% uptake),[1]; 10 d.p.f.,713.5%
same,BBB penetration in mammals,[4],(penetrant)
COC(=O)c1ccccc1-c1c2ccc(=N)cc-2oc2cc(N)ccc12 [Rhodamine 123],larval age at which the injected dye is excluded from the brain,[3]; [11],8 d.p.f.
same,exclusion of R123 from the brain in the presence of verapamil,[5],failed to be excluded
CN1[C@@H]2C[C@@H](OC(=O)[C@H](CO)c3ccccc3)C[C@H]1[C@@H]1O[C@@H]12 [Scopolamine],drug level (LC/MS/MS),[1]; 5 d.p.f.,below the detection limits
same,drug level (LC/MS/MS),[1]; 8 d.p.f.,below the detection limits
same,Head concentration,"[1]; 10 d.p.f., immersion 1 hour",.65 µg/g
same,Trunk concentration,"[1]; 10 d.p.f., immersion 1 hour",.63 µg/g
"O=C([O-])c1ccccc1-c1c2ccc(=O)cc-2oc2cc([O-])ccc12.[Na+].[Na+] [Sodium fluorescein, sodium fluorescein]",larval age at which the injected dye is excluded from the brain,[3]; [11],10 d.p.f.
Scopolamine N-butyl bromide,LogP,[6],-1.11
